The target in assay [1] is T1, Mitogen-activated protein kinase kinase kinase 7 (Homo sapiens, UniProt O43318).
T1 sequence (O43318 whole entry): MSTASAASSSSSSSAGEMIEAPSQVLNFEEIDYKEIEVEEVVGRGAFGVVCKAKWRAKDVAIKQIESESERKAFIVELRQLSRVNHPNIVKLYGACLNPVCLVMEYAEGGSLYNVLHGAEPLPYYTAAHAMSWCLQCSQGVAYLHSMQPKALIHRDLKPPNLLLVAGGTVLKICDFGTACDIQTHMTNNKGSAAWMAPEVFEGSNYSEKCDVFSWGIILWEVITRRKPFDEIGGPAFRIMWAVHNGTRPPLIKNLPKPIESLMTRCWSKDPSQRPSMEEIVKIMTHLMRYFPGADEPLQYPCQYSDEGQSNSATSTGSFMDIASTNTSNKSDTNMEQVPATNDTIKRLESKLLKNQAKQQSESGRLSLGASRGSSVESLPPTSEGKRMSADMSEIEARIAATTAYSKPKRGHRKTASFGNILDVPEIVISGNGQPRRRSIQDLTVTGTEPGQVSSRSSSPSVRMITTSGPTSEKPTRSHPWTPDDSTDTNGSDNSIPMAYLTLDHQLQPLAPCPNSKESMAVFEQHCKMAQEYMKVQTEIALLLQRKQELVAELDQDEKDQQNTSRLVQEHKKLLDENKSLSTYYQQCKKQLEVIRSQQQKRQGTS
The assay is described as follows: Inhibition of TAK1 (unknown origin).

The target in assay [2] is T2, Mitogen-activated protein kinase kinase kinase 5 (Homo sapiens, UniProt Q99683).
T2 sequence (Q99683 whole entry): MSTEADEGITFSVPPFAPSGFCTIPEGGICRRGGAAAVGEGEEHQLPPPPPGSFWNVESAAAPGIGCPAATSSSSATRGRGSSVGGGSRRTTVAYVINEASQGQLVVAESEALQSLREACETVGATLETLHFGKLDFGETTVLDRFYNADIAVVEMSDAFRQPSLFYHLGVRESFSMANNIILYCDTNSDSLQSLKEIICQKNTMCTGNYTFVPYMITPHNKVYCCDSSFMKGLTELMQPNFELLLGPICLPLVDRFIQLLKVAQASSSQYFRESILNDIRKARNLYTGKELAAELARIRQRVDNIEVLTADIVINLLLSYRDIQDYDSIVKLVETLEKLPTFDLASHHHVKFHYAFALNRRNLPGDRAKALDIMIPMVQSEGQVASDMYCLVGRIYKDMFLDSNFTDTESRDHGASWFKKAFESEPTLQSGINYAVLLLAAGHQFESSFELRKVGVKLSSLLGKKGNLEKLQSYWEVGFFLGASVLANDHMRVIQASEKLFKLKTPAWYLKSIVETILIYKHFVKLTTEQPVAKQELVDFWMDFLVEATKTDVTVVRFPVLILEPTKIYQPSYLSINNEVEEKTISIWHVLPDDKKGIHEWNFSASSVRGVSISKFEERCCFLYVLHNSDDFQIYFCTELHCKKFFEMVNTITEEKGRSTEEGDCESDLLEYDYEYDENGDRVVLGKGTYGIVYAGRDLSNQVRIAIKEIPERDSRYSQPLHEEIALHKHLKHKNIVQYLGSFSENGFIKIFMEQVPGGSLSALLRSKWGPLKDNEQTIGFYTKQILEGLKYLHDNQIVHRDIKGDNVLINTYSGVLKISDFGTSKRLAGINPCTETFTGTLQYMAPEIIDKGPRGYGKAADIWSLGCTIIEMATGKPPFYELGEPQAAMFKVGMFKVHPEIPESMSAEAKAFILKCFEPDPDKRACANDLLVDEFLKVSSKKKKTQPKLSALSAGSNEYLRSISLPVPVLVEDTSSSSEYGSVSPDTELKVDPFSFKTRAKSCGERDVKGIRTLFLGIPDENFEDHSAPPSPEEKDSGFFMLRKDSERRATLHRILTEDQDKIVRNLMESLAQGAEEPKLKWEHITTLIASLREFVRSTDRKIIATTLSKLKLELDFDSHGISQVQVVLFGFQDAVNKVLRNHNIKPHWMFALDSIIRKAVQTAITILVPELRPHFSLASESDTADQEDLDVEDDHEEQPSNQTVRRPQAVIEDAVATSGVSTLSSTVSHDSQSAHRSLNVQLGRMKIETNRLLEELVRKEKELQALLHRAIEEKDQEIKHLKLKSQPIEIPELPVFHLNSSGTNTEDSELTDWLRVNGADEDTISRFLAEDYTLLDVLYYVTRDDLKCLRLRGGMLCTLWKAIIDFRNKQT
In words: Inhibition of ASK1 (unknown origin).

Assay [3] addresses T3, Mitogen-activated protein kinase kinase kinase 6 (Homo sapiens, UniProt O95382).
T3 sequence (O95382 whole entry): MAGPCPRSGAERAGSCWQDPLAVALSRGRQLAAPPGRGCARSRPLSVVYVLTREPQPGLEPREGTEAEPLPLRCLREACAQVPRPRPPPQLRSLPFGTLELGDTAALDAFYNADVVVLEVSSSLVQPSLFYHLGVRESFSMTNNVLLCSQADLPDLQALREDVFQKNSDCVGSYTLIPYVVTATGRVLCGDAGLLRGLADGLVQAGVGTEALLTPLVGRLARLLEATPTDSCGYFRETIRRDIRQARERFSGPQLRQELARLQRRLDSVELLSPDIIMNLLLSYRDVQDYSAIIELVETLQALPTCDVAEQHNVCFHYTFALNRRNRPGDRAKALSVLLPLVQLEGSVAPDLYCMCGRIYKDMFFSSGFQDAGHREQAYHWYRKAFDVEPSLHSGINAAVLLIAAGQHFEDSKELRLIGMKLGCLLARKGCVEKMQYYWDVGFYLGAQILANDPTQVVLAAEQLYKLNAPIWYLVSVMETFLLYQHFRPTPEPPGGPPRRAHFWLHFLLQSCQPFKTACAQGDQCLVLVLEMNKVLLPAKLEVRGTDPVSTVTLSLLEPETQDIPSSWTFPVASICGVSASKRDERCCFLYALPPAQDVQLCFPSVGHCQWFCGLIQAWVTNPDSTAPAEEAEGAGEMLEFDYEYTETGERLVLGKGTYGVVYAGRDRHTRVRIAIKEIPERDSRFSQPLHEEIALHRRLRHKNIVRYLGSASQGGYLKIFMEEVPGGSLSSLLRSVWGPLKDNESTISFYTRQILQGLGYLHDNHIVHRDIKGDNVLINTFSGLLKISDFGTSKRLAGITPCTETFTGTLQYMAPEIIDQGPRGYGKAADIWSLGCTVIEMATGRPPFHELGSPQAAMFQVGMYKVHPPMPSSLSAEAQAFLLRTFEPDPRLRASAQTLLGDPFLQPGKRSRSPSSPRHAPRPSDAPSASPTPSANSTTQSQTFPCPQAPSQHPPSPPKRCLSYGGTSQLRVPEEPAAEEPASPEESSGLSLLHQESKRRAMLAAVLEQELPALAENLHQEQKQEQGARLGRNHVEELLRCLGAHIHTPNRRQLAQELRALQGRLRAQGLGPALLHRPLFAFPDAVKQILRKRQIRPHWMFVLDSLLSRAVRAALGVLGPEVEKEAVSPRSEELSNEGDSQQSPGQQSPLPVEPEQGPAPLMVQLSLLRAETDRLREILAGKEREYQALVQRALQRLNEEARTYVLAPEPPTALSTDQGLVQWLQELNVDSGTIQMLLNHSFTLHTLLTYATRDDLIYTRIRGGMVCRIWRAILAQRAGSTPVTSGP
The assay is described as follows: Inhibition of ASK2 (unknown origin).

For assay [4], the system named is HepG2. The assay is described as follows: Induction of cell cycle arrest in human HepG2 cells assessed as accumulation at G0/G1 phase at 16 uM incubated for 24 hrs by propidium iodide staining based flow cytometry (reference value: 38.34%). It is filed as functional. Background: Flow cytometry measures light scatter and fluorescence of single cells or particles in a stream.

Assay [5] deals with HepG2. The assay is described as follows: Induction of cell cycle arrest in human HepG2 cells assessed as accumulation at G0/G1 phase at 0.5 to 8 uM incubated for 24 hrs by propidium iodide staining based flow cytometry. It is filed as functional. The note with it: dose 0.5-8 µM.
Assay [6] in a line: Inhibition of human full length recombinant CDK9/cyclin T1 using KTFCGTPEYLAPE as substrate incubated for 40 mins in presence of [gamma-33ATP] by radiometric scintillation counting analysis.

The structures appear in SMILES notation. Calls of active or inactive are those of the source. The calls are words filed in the database; no cut-off is given here.

These results are taken from ChEMBL document CHEMBL4680251, “Discovery of a 2-pyridinyl urea-containing compound YD57 as a potent inhibitor of apoptosis signal-regulating kinase 1 (ASK1)” (Eur J Med Chem, 2020).

Take `CC(C)n1cnnc1-c1cccc(NC(=O)Nc2ccc(-c3ccn(C)n3)cn2)n1`: the IC50 – broadly, the concentration at which inhibition is half-maximal – in assay [1] turned out to be 2220 nM; in assay [2], 64.2 nM; in assay [3] it was 2780 nM.
Take `C[C@H](CO)n1cnnc1-c1cccc(NC(=O)Nc2ccc3ccccc3n2)n1`: the values for the IC50 in assay [1], in assay [2] and in assay [3] were 1880 nM, 47.4 nM and 2860 nM, respectively.
With `CC(C)n1cnnc1-c1cccc(NC(=O)Nc2cc3ccccn3n2)n1`, the IC50 in assay [1] was over 10000 nM; in assay [2], 85.3 nM; in assay [3], 4990 nM.
The matching figures for `C[C@H](CO)n1cnnc1-c1cccc(NC(=O)Nc2nccc3ccccc23)n1`: 63.7 nM, 37.9 nM and 264 nM.
Regarding `CC(C)n1cnnc1-c1cccc(NC(=O)Nc2nccc3ccccc23)n1`, the IC50 came out at 85.2 nM in assay [1], 48.5 nM in assay [2] and 201 nM in assay [3].
As for `CC(C)n1cnnc1-c1cccc(NC(=O)Nc2cnc3ccccc3n2)n1`, the IC50 amounted to 6800 nM in assay [1], 58 nM in assay [2] and 4860 nM in assay [3].
For the molecule `CC(C)n1cnnc1-c1cccc(NC(=O)Nc2ccccn2)n1`, the concentration for half-maximal inhibition (IC50) in assay [1] was determined as 734 nM; in assay [2], 43.4 nM; in assay [3], 1090 nM.
As for `Cc1cc(F)c(C(=O)Nc2cccc(-c3nncn3C(C)C)n2)cc1-n1cnc(C2CC2)c1`, the outcome with HepG2 [4] was Active. Also, the result with HepG2 [5] was inactive.
In the case of `CN[C@@H]1C[C@H]2O[C@@](C)([C@@H]1OC)n1c3ccccc3c3c4c(c5c6ccccc6n2c5c31)C(=O)NC4` [STAUROSPORINE], in assay [6], the IC50 was found to be 60.1 nM.
Consider `CC(C)n1cnnc1-c1cccc(NC(=O)Nc2cc3ccccc3cn2)n1`, for which the figures for the IC50 in assay [1], in assay [2] and in assay [3] were 1360 nM, 50.6 nM and 1590 nM, respectively.
Consider `CC(C)n1cnnc1-c1cccc(NC(=O)Nc2ccc3ccccc3n2)n1`, for which the IC50 was 4560 nM in assay [1], 69.1 nM in assay [2] and 2340 nM in assay [3].
Consider `C[C@H](CO)n1cnnc1-c1cccc(NC(=O)Nc2cnc3ccccc3n2)n1`, for which the IC50 in assay [1] is over 10000 nM; in assay [2] it was 114 nM; in assay [3], over 10000 nM.
As to `CC(C)n1cnnc1-c1cccc(NC(=O)Nc2ncnc3ccccc23)n1`, the values for the IC50 in assay [1], in assay [2] and in assay [3] were 421 nM, 71 nM and 1480 nM, respectively.
Consider `CC(C)n1cnnc1-c1cccc(NC(=O)Nc2ncc3ccccc3n2)n1`, for which the values for the IC50 in assay [1], in assay [2] and in assay [3] were 4220 nM, 65.7 nM and 2910 nM, respectively.
As to `C[C@H](CO)n1cnnc1-c1cccc(NC(=O)Nc2ncc3ccccc3n2)n1`, the IC50 in assay [1] was 5770 nM; in assay [2], 81 nM; in assay [3], 7170 nM.
For the molecule `CC(C)n1cnnc1-c1cccc(NC(=O)Nc2ncc3[nH]cnc3n2)n1`, the IC50 was determined as 1210 nM in assay [1], 32.6 nM in assay [2] and 742 nM in assay [3].
